Measured values reported in patent publication US20220142888A1, “COMPOSITION FOR IMPROVING SKIN CONDITIONS” (NEOPHARM CO., LTD., priority 2020, published 2022).

Columns and labels:
filaggrin = assay: Expression level of filaggrin in keratinocytes, real-time PCR; assay type: cell-based; details: 24 hours, versus untreated control, FIG. 5
Protocol: In order to measure the effect of promoting the expression of moisturizing factors of each of Examples and Comparative Example of the present invention, the expression levels of filaggrin and loricrin were measured.
Specifically, keratinocytes purchased from Invitrogen Corporation were cultured in EpiLife (keratinocyte growth medium) containing a supplement (human keratinocyte growth supplement (HKGS)) for a predetermined time, and then, the cells were subcultured three times and then used. The keratinocytes which were subcultured three times were cultured to a confluence of 70 to 80% in a 6-well plate, each of the wells was separately treated with each of the samples, and then, the keratinocytes were cultured for a total of 24 hours. RNA of the keratinocytes was extracted from the cultured cells using easy BLUE, and then, cDNA synthesis was performed using SuperScript reverse transcriptase III kit. Real-time PCR for comparing the genes was performed using 2× TaqMan universal PCR mixture (10 μl), 20× TaqMan expression assay mix (1 μl), cDNA (50 ng), and a primer (Filaggrin: Hs00856927_g1*, Loricrin: Hs01894962_s1*) and a 7500 Fast Real-Time PCR system. In addition, a sample treated with 10 μM IGF-1 was used as a positive control group, and a control that was not treated with the sample was used as a comparison group.

desmoglein1 (DSG1) gene = assay: Expression of desmoglein1 (DSG1) gene in UVB-irradiated NHEKs, Taqman real-time PCR; assay type: cell-based, human; details: UVB 25 mJ/cm^2, 10 nM sample, 4th day of culture, FIG. 6
Protocol: In order to confirm the effect of strengthening the skin barrier of each of Examples and Comparative Example of the present invention, an expression level of DSG1 gene as an intercellular binding factor was confirmed.
Specifically, normal human epidermal keratinocytes (NHEKs) were cultured in a 6-well plate incubator. After 24 hours, the keratinocyes were washed with phosphate-buffered saline (PBS), irradiation with UVB (25 mJ/cm^2) was performed, a 10 nM sample of each of Examples and Comparative Example was added to the NHEK culture medium, and then, culture was performed. The cells were harvested on the 4th day of culture, RNA was separated, cDNA was synthesized by a reverse transcriptional polymerase chain reaction (RT-PCR), Taqman real-time PCR was performed using the synthesized cDNA, and then, the expression level of the DSG1 gene as a keratinocyte differentiation marker was measured.

[1] = tested on: LL-37 (cathelicidin-related antimicrobial peptide (CAMP)); assay: Expression of antimicrobial peptide LL-37 in human epidermal keratinocytes, real-time PCR; assay type: cell-based; details: NHEKs, 1% sample (in H2O), 24 hours, gene level, FIG. 1
Protocol: (§1) In order to confirm the effect of enhancing the skin immunity and defense of each of Examples and Comparative Example of the present invention, the activities of peptide LL-37 (cathelicidin-related antimicrobial peptide (CAMP)), human β-defensin-2 (hBD-2), and human β-defensin-3 (hBD-3) having antimicrobial efficacy were confirmed.
(§2) In order for the confirmation, human epidermal keratinocytes (NHEKs) were dispensed into a 96-well plate, and the cells were cultured under cell culture conditions for 24 hours. Thereafter, the cells were treated with a control, DMSO, and a 1% sample (in H2O) of each of Examples and Comparative Example, and the cells were additionally cultured for 24 hours. A real-time PCR method was performed to determine LL-37, BD-2, and BD-3 at a gene-level. The test procedure is as follows.
(§3) SuperPrep™ cell lysis and RT Kit for qPCR (TOYOBO, SCQ-101) were used for RNA isolation and cDNA synthesis. The cells from which the medium was removed were washed once with phosphate-buffered saline (PBS), 50 μl of a cell lysis mixture (including gDNA remover) was added and reacted for 5 minutes, and then, a stop solution was added. […] QuantiTect primer assays of Qiagen were used in the experiment as a primer, and the expression levels of LL-37, BD-2, and BD-3 in the samples were quantified as GADPH and compared with each other. […]

[2] = tested on: human β-defensin-2 (hBD-2); assay: Expression of antimicrobial peptide BD-2 in human epidermal keratinocytes, real-time PCR; assay type: cell-based; details: NHEKs, 1% sample (in H2O), 24 hours, gene level, FIG. 2
Protocol: as §1, §2, §3

[3] = tested on: human β-defensin-3 (hBD-3); assay: Expression of antimicrobial peptide BD-3 in human epidermal keratinocytes, real-time PCR; assay type: cell-based; details: NHEKs, 1% sample (in H2O), 24 hours, gene level, FIG. 3
Protocol: as §1, §2, §3

Structure (SMILES)	expression level of filaggrin, increase relative to the expression level in the control (filaggrin)	expression level of desmoglein1, increase relative to the expression level in the UVB treatment group (desmoglein1 (DSG1) gene)	expression level of antimicrobial peptide LL-37 relative to that in Example 2 [1]	expression level of antimicrobial peptide BD-2 relative to that in Example 2 [2]	expression level of antimicrobial peptide BD-3 relative to that in Example 2 [3]
CCCCCCCCCC(=O)NC(CO)C(=O)OC (stereo not shown) [Example 2, N-(1-oxodecyl)serine methyl ester]	≥ 3.8 times	≥ 4.5 times	–	–	–
CCCCCCCCCC(=O)NC(CO)C(=O)OCC (stereo not shown) [Example 1, N-(1-oxodecyl)serine ethyl ester]	≥ 4.3 times	≥ 4.1 times	–	–	–
CCCCCC(=O)N[C@@H](Cc1ccc(O)cc1)C(=O)OC [Comparative Example 1, Defensamide]	–	–	40%	33%	40%
